Measured values as given in publication PMC12434536, “Radiosynthesis and Preclinical Evaluation of a Carbon-11 Labeled Phosphodiesterase 7 Inhibitor for PET Neuroimaging” (ACS Medicinal Chemistry Letters, 2025).

Key:
[1] = target: T1, HEK293-PDE7B recombinant cell lines (Homo sapiens, UniProt Q9NP56); assay: In vitro cell uptake and blocking of [11C]27; format: cell-based; conditions: blocker 1 μM, 60 min incubation, PDE7B overexpressing HEK293 cells, n = 4
T1 construct: host or cells: HEK293
Experimental: Control study: HEK293-PDE7B Recombinant cells (catalog#60412, BPS Bioscience) and HEK293 control cells (catalog# CRL-1573, ATCC) – both in logarithmic growth phase – were plated in a 24 well plate (2 × 10^5 cells per well) and cultured overnight. After 24 hr, each well was added 2 μCi of [ 11C]27, and incubated at 37 °C for 30 min or 60 min. The radioactive medium was aspirated and collected in a tube. The residual cells were washed twice with PBS, and then collected in the same tube. The cells were lysed with 1 N NaOH (200 μL) and washed twice with PBS, all the resulting solutions were collected in one tube.
The radioactivity in the collected supernatant and cell lysis buffer (600 μL/tube) was measured using a Cobra Model 5002/5003 gamma counter, respectively.
Blocking study: HEK293-PDE7B cells in logarithmic growth phase were plated in 24 well plate (2 × 10^5 cells per well) and cultured overnight. After 24 h, each well was added 2 μCi of [11C]27 with or without unlabeled reference compound 27 or BRL50481, respectively. The resulting culture medium contained 2 μCi of [ 11C]27, 1 µM of unlabeled compound 27 or BRL50481, and 5% DMSO. Cells were incubated at 37 °C for 60 min and samples were collected as described for the control study. The cell uptake was calculated according to the following eq.: cell uptake% = A lysis buffer/(A lysis buffer+Asupernate) (n = 4)

PDE7 = assay: PET imaging in rats (baseline and self-blocking); format: in vivo, Sprague-Dawley rats; conditions: SD rats, self-blocking, 1 mg/kg
Experimental: page 10: All animal experiments were approved by the Institutional Animal Care and Use Committee of Massachusetts General Hospital or the National Institute of Radiological Sciences (Japan). C57BL/6 mice (female; 8 weeks, 20-25 g) and Sprague-Dawley rats (male; 8-9 weeks; 264-310 g) were kept on a 12 h light/12 h dark cycle and were allowed food and water ad libitum. Rodent PET scans were carried out using a […] (Sofie Biosciences, Culver, CA, USA) or a Siemens Inveon PET/CT system. Animals were kept under anesthesia using 1-2% (v/v) isoflurane in oxygen during the scan. The radiotracer (1.85 MBq for mice; 42-53 MBq for rats) was injected into the tail vein via a preinstalled catheter. A dynamic scan in 3D list mode was acquired for 60 min. The PET dynamic images were reconstructed using the manufacturer's acquisition software. Volumes of interest, including whole brain, cortex, striatum, hippocampus, thalamus and cerebellum were placed using AMIDE / PMOD software. The radioactivity was decay-corrected and expressed as standardized uptake value (SUV = radioactivity per mL tissue / injected radioactivity × bodyweight). S8

hERG channel = hERG channel (Homo sapiens, UniProt Q12809); assay: In vitro safety: hERG channel inhibition; format: biochemical
hERG channel, sequence (Q12809 whole entry): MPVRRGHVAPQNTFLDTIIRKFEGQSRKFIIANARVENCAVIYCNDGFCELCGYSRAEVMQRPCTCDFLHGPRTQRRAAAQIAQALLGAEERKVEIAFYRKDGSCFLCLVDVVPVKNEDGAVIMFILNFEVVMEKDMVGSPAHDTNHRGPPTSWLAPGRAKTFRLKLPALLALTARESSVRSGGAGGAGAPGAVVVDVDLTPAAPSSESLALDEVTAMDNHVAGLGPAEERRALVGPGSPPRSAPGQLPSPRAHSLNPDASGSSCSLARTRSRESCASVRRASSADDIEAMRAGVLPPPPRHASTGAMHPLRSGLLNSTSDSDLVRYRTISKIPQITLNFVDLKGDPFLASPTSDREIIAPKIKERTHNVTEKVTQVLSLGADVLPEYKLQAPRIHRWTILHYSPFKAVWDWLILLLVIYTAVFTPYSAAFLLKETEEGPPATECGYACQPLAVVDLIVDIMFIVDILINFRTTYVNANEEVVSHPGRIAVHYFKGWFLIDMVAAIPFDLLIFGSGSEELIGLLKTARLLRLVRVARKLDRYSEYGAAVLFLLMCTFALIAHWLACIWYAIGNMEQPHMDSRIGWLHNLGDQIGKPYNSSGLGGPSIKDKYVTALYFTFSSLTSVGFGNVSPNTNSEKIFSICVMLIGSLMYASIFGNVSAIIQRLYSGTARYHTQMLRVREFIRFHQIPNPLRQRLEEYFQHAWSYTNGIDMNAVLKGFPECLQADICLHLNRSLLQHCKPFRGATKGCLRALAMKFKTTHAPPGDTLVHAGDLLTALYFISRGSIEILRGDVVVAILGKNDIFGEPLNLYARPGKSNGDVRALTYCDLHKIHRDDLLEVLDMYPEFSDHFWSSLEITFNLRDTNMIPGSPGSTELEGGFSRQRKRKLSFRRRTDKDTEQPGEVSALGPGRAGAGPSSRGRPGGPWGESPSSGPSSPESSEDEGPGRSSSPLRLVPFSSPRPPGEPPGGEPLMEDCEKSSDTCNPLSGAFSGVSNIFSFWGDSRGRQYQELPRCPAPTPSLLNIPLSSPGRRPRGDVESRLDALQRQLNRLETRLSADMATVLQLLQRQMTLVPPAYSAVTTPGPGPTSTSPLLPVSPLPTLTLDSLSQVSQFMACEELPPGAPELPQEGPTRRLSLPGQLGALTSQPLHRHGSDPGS
Experimental: time-dependent manner for 80 min with an acquisition interval of 2 min. IC50 curves were
plotted using a non-linear regression model with Graphpad Prism 6. The latter method was
further applied to assess the inhibitory constant of compound 27 to the hERG channel. […]

[2] = Plasma protein binding (free fraction); format: in vitro ADME; conditions: mouse, rat, and human plasma
Experimental: The general procedure for lipophilicity measurement was previously described, 4 with minor modification in this work. Briefly, the measurement of LogD value was carried out by mixing [11C]27 (radiochemical purity > 99%) with n-octanol (3.0 g) and PBS (0.1 M, 3.0 g) in a test tube. Both n-octanol and PBS were pre-saturated with each other prior to use. The tube was first vortexed for 5 min, followed by centrifugation (~3500-4000 rpm) for an additional 5 min. PBS and n-octanol were aliquoted, weighed and the radioactivity in each component was measured using a Cobra Model 5002/5003 gamma counter. The LogD was determined by Log [ratio of radioactivity in n-octanol and aqueous layer, respectively] (n = […]
For the evaluation of plasma protein binding,5 55.5 MBq radiotracer was added to 150 μL of plasma, which was pre-incubated under 37 °C for 5 min (n = 3). The samples were incubated at 37 °C for 10 min. To each 150 μL of radiotracer-plasma solution was added 300 μL of ice-cold PBS and all samples were briefly vortexed. […] The radioactivity (in Becquerel) was measured in the protein fraction (Aprotein), filtrate, and filter unit using a gamma counter (Wizard, PerkinElmer), Atotal was calculated as the sum of radioactivity, and the free fraction f u was calculated according to the following eq.: f u = 1-

[3] = system: other PDE isozymes (PDE1A/B/C, 2A, 3A/B, 4A/B/C/D, 5A, 8A, 9A, and 10A); assay: Selectivity over other PDE isozymes; format: biochemical; conditions: at 3 μM of compound 27; human recombinant enzymes
Experimental: protein-ligand complex were saved and were then loaded into Schrödinger Maestro to generate the ligand interaction plot.
In vitro inhibitory assay to PDE7 of compound 27 and selectivity to other PDEs Functional activity of target compound 27 for inhibition of PDE7A activity and the selectivity over other PDE isozymes (PDE1A/B/C, 2A, 3A/B, 4A/B/C/D, 5A, 8A, 9A, and 10A) were evaluated by Eurofins Panlabs Discovery Services and Reaction Biology Corp., respectively. Human recombinant enzymes were used for the assays. The inhibitory assays were performed and calculated in duplicate at 3 µM. If the inhibition percentage was less than 50%, the assay for half-maximal inhibitory concentration (IC50) value was conducted in […]
CYP450 isoform metabolism and in vitro safety profiling
The inhibitory constant of compound 26 toward cytochrome P450-dependent metabolic pathways was determined for individual CYP isoform (CYP1A2, CYP2C9, CYP2C19, CYP2D6, and CYP3A4). Reference inhibitors were included as positive controls. A 10 µM solution of compound 27 was used for initial screening. If the inhibition percentage was less than 50%, the experiment was stopped. If the inhibition potency was greater than 50%, the gradient concentrations of compound 27 were used for IC 50 determination. The P450 reactions were detected at Ext/Em: 405 nm/460 nm (530 nm/605 nm for CYP2C9) in a […]

T1 sequence (Q9NP56 whole entry): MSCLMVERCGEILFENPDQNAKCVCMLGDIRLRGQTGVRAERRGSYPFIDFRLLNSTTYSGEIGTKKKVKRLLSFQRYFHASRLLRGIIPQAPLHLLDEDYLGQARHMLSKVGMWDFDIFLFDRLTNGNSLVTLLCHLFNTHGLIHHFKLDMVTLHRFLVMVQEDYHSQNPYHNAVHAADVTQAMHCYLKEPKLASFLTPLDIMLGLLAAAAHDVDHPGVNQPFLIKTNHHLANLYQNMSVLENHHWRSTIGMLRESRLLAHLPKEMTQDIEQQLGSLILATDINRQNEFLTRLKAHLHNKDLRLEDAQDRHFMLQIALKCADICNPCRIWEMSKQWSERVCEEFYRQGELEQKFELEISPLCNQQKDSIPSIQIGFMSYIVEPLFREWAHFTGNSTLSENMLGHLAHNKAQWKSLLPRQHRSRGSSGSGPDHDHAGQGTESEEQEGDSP

Question: With `COc1ccc(Cl)c2c1C1(CCCCC1)NC(=O)N2` [Compound 27] as the molecule, how does the “blockade of [11C]27 cell uptake” value [1] read?
Answer: Its value is “ca. 90%”.

Question: What about the “effect of pretreatment on [11C]27 brain uptake” value (PDE7) of the same molecule?
Answer: Its value is “marginally reduced brain uptake”.

Question: And the IC50 (hERG channel)?
Answer: The IC50 was > 100 µM.

Question: And the fraction unbound at 10 min [2]?
Answer: Its fraction unbound at 10 min is ≥ 0.01.

Question: What about the “% inhibition of other PDE isomers” value [3] of the same molecule?
Answer: The value was < 50%.
